Source: ChEMBL document CHEMBL1156145, “1-(2-Aminoethyl)-3-(arylsulfonyl)-1H-pyrrolopyridines are 5-HT(6) receptor ligands” (Bioorg Med Chem Lett, 2009)

Key:
[1] = biological target: T1, 5-hydroxytryptamine receptor 6 (Homo sapiens, UniProt P50406); assay: Displacement of [3H]LSD from human HT6 receptor expressed in human HeLa cells; format: cell-based
[2] = biological target: T1, 5-hydroxytryptamine receptor 6; assay: Agonist activity at human HT6 receptor expressed in human HeLa cells assessed as intracellular cAMP level by radioimmunoassay relative to serotonin; format: functional, cell-based
[3] = biological target: T1, 5-hydroxytryptamine receptor 6; assay: Agonistic activity at human HT6 receptor expressed in HeLa cells assessed as intracellular cAMP level by radioimmunoassay
[4] = biological target: T1, 5-hydroxytryptamine receptor 6; assay: Antagonistic activity at human HT6 receptor expressed in HeLa cells assessed as intracellular cAMP level by radioimmunoassay; format: functional, cell-based
[5] = biological target: T1, 5-hydroxytryptamine receptor 6; assay: Antagonistic activity at human HT6 receptor expressed in HeLa cells assessed as intracellular cAMP level by radioimmunoassay relative to serotonin; format: functional, cell-based
[6] = biological target: T1, 5-hydroxytryptamine receptor 6; assay: Displacement of [3H]LSD from human HT6 receptor expressed in HeLa cells at 1 uM relative to serotonin; format: cell-based

T1 sequence (P50406 whole entry): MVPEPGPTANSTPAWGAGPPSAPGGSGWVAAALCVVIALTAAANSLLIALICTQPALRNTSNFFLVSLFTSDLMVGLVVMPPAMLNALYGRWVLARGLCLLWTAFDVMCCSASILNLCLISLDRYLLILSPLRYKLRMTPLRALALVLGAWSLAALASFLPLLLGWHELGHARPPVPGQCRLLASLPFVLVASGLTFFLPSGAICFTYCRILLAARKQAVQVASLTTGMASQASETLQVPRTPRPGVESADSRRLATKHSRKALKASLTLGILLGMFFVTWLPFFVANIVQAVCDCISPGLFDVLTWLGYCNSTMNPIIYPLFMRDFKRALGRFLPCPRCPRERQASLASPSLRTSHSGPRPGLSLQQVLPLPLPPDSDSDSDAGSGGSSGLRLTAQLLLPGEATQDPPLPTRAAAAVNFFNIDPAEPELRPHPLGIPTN

Ki [1] | Emax [2] | SMILES | other results
3.9 nM | – | CC(=O)c1ccc2c(n1)c(S(=O)(=O)c1ccc(Br)cc1)cn2CCN(C)C | IC50 [4]: 385 nM; Imax [5]: 100%
368 nM | – | CN(C)CCn1cc(S(=O)(=O)c2ccccc2)c2ncccc21 | –
56 nM | – | CC(=O)c1ccc2c(n1)c(S(=O)(=O)c1ccccc1)cn2CCN(C)C | –
11.3 nM | – | COc1ccc2c(n1)c(S(=O)(=O)c1cccc(F)c1)cn2CCN(C)C | IC50 [4]: 41 nM; Emax [5]: 91%
1.7 nM | – | COc1ccc2c(n1)c(S(=O)(=O)c1cccc3ccccc13)cn2CCN(C)C | IC50 [4]: 295 nM; Emax [5]: 100%

Continued, compound first:

SMILES | Ki [1] | Emax [2] | other results
NCCn1cc(S(=O)(=O)c2cccc(F)c2)c2ncccc21 | 76 nM | 51% | EC50 [3]: 823 nM
NCCn1cc(S(=O)(=O)c2c(Cl)nc3sccn23)c2ncccc21 | 42 nM | – | –
Cc1cccc(S(=O)(=O)c2cn(CCN)c3cccnc23)c1 | 46 nM | – | –
CN(C)CCn1cc(S(=O)(=O)c2cccc(F)c2)c2cccnc21 | – | 100% | –
CN(C)CCn1cc(S(=O)(=O)c2ccccc2)c2cc(Cl)ncc21 | – | – | Activity [6]: 55%
CN(C)CCn1cc(S(=O)(=O)c2ccccc2)c2cnccc21 | – | – | Activity [6]: 39%
CN(C)CCn1cc(S(=O)(=O)c2ccccc2)c2cccnc21 | – | 94% | –
NCCn1cc(S(=O)(=O)c2cccc(Cl)c2)c2ncccc21 | 35 nM | 56% | EC50 [3]: 197 nM
